Values belong to the compound of their own block, whether it stands above or below them.
Tests used:
TAOK2 (TAO1) = TAOK2 (TAO1) (Homo sapiens, UniProt Q9UL54); assay: Kinase profiling (SelectScreen), ZLYTE; type: biochemical
Experimental: (§1) Kinase profiling was conducted by the SelectScreen Kinase Profiling Services (Thermo Fisher), using Z′-LYTE, Adapta, or LanthaScreen Eu Kinase Binding Assay for different kinases. The kinome phylogenetic tree was generated using the KinMap web portal.

GSK3B (GSK3 beta) = GSK3B (GSK3 beta) (Homo sapiens, UniProt P49841); assay: Kinase profiling (SelectScreen), ZLYTE; type: biochemical
Experimental: as §1

STK4 (MST1) = STK4 (MST1) (Homo sapiens, UniProt Q13043); assay: Kinase profiling (SelectScreen), ZLYTE; type: biochemical
Experimental: as §1

KIT = KIT (Homo sapiens, UniProt P10721); assay: Kinase profiling (SelectScreen), ZLYTE; type: biochemical
Experimental: as §1

ERBB2 (HER2) = ERBB2 (HER2) (Homo sapiens, UniProt P04626); assay: Kinase profiling (SelectScreen), ZLYTE; type: biochemical
Experimental: as §1

RET = RET (Homo sapiens, UniProt P07949); assay: Kinase profiling (SelectScreen), ZLYTE; type: biochemical
Experimental: as §1

DNA-PK = DNA-PK (Homo sapiens, UniProt P78527); assay: Kinase profiling (SelectScreen), ZLYTE; type: biochemical
Experimental: as §1

ABL1 = ABL1 (Homo sapiens, UniProt P00519); assay: Kinase profiling (SelectScreen), ZLYTE; type: biochemical
Experimental: as §1

DYRK1A = DYRK1A (Homo sapiens, UniProt Q13627); assay: Kinase profiling (SelectScreen), ZLYTE; type: biochemical
Experimental: as §1

DAPK3 (ZIPK) = DAPK3 (ZIPK) (Homo sapiens, UniProt O43293); assay: Kinase profiling (SelectScreen), ZLYTE; type: biochemical
Experimental: as §1

PTK2 (FAK) = PTK2 (FAK) (Homo sapiens, UniProt Q05397); assay: Kinase profiling (SelectScreen), ZLYTE; type: biochemical
Chain of PTK2 (FAK) (Q05397 whole entry): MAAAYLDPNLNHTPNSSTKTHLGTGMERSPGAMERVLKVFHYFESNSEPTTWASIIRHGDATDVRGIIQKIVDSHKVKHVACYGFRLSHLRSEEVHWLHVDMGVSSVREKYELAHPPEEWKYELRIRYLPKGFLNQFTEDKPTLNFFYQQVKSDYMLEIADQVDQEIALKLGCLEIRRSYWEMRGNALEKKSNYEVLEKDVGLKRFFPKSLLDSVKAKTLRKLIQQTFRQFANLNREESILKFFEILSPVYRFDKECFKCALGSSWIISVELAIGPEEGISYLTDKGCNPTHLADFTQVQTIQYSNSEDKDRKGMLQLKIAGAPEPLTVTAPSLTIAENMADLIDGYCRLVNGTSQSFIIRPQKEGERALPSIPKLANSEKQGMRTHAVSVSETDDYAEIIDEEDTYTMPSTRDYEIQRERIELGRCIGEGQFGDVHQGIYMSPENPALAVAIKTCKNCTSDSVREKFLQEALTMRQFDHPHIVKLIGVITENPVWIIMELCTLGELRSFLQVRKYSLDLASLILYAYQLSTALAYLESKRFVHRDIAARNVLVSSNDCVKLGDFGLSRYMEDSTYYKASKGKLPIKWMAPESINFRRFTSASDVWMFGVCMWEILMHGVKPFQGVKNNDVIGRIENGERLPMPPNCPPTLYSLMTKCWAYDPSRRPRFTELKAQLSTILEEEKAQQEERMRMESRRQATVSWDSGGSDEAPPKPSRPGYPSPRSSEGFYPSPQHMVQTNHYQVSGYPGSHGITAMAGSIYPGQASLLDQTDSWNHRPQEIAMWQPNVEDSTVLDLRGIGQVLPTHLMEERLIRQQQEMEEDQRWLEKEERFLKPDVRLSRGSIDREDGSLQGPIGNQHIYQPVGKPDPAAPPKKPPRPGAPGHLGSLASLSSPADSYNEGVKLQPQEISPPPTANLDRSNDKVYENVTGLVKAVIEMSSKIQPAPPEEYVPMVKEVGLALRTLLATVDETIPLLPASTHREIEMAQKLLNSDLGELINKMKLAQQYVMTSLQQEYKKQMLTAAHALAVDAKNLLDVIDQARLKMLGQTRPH
Experimental: as §1

PHKG2 = PHKG2 (Homo sapiens, UniProt P15735); assay: Kinase profiling (SelectScreen), ZLYTE; type: biochemical
Experimental: as §1

MARK2 = MARK2 (Homo sapiens, UniProt Q7KZI7); assay: Kinase profiling (SelectScreen), ZLYTE; type: biochemical
Experimental: as §1

CAMK1D (CaMKI delta) = CAMK1D (CaMKI delta) (Homo sapiens, UniProt Q8IU85); assay: Kinase profiling (SelectScreen), ZLYTE; type: biochemical
Chain of CAMK1D (CaMKI delta) (Q8IU85 whole entry): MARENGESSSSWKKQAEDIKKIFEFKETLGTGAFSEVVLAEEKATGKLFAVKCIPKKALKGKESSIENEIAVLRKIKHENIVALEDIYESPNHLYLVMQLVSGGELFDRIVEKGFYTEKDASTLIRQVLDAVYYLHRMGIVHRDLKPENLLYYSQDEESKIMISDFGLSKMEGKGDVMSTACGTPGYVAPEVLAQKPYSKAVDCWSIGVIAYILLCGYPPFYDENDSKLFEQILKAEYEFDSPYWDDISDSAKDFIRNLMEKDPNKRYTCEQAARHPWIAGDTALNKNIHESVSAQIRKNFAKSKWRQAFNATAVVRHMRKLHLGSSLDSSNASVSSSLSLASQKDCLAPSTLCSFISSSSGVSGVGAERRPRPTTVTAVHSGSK
Experimental: as §1

ACVR1B (ALK4) = ACVR1B (ALK4) (Homo sapiens, UniProt P36896); assay: Kinase profiling (SelectScreen), ZLYTE; type: biochemical
Experimental: as §1

HIPK4 = HIPK4 (Homo sapiens, UniProt Q8NE63); assay: Kinase profiling (SelectScreen), ZLYTE; type: biochemical
Chain of HIPK4 (Q8NE63 whole entry): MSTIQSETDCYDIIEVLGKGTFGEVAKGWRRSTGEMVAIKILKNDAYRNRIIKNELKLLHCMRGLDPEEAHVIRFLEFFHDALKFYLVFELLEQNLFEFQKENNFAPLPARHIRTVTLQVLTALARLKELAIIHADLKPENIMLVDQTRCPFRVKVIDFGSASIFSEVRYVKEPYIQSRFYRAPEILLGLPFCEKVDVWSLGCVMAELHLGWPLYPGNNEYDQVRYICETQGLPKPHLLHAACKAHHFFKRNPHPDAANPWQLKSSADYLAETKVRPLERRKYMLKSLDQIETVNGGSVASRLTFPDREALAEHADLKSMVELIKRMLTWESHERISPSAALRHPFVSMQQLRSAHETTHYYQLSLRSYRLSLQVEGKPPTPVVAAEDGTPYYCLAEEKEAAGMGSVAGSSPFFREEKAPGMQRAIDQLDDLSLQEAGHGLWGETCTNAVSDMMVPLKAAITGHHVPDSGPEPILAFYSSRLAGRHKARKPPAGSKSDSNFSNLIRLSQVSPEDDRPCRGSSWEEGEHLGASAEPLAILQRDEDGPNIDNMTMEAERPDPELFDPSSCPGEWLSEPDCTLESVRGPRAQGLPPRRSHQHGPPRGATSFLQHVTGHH
Experimental: as §1

PLK1 = PLK1 (Homo sapiens, UniProt P53350); assay: Kinase profiling (SelectScreen), ZLYTE; type: biochemical
Experimental: as §1

PRKACA (PKA) = PRKACA (PKA) (Homo sapiens, UniProt P17612); assay: Kinase profiling (SelectScreen), ZLYTE; type: biochemical
Experimental: as §1

PIM1 = PIM1 (Homo sapiens, UniProt P11309); assay: Kinase profiling (SelectScreen), ZLYTE; type: biochemical
Experimental: as §1

KDR (VEGFR2) = KDR (VEGFR2) (Homo sapiens, UniProt P35968); assay: Kinase profiling (SelectScreen), ZLYTE; type: biochemical
Experimental: as §1

CLK2 = CLK2 (Homo sapiens, UniProt P49760); assay: Kinase profiling (SelectScreen), ZLYTE; type: biochemical
Experimental: as §1

CSNK2A1 (CK2 alpha 1) = CSNK2A1 (CK2 alpha 1) (Homo sapiens, UniProt P68400); assay: Kinase profiling (SelectScreen), ZLYTE; type: biochemical
Chain of CSNK2A1 (CK2 alpha 1) (P68400 whole entry): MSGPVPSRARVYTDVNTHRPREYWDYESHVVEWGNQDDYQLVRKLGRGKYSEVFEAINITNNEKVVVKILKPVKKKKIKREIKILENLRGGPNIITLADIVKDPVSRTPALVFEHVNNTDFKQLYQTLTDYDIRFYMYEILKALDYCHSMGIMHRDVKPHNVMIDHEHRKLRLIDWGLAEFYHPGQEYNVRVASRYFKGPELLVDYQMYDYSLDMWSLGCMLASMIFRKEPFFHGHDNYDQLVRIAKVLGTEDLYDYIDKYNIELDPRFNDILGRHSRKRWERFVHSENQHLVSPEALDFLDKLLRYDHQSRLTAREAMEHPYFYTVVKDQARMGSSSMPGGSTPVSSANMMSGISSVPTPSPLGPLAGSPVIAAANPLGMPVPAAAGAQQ
Experimental: as §1

EPHA2 = EPHA2 (Homo sapiens, UniProt P29317); assay: Kinase profiling (SelectScreen), ZLYTE; type: biochemical
Experimental: as §1

CHEK1 (CHK1) = CHEK1 (CHK1) (Homo sapiens, UniProt O14757); assay: Kinase profiling (SelectScreen), ZLYTE; type: biochemical
Experimental: as §1

RPS6KA3 (RSK2) = RPS6KA3 (RSK2) (Homo sapiens, UniProt P51812); assay: Kinase profiling (SelectScreen), ZLYTE; type: biochemical
Chain of RPS6KA3 (RSK2) (P51812 whole entry): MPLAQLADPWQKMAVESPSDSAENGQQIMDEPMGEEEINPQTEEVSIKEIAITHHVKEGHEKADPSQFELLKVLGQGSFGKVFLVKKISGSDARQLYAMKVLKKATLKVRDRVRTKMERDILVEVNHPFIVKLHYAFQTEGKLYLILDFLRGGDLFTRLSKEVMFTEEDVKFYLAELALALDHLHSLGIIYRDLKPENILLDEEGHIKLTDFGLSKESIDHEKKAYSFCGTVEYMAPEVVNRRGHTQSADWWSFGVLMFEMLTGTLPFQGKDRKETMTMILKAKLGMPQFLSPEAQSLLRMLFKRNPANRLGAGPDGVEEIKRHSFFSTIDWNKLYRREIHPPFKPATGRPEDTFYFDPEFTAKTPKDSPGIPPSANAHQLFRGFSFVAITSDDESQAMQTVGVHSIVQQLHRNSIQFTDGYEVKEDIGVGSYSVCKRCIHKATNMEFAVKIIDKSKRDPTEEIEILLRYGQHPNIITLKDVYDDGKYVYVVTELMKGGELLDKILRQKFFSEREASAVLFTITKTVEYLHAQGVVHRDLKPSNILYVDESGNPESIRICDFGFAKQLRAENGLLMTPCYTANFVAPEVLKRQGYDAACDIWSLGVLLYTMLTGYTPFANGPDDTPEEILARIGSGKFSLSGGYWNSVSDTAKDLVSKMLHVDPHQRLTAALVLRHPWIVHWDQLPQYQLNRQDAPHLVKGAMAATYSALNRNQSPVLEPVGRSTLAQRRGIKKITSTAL
Experimental: as §1

FLT3 = FLT3 (Homo sapiens, UniProt P36888); assay: Kinase profiling (SelectScreen), ZLYTE; type: biochemical
Experimental: as §1

INSR = INSR (Homo sapiens, UniProt P06213); assay: Kinase profiling (SelectScreen), ZLYTE; type: biochemical
Experimental: as §1

DYRK3 = DYRK3 (Homo sapiens, UniProt O43781); assay: Kinase profiling (SelectScreen), ZLYTE; type: biochemical
Chain of DYRK3 (O43781 whole entry): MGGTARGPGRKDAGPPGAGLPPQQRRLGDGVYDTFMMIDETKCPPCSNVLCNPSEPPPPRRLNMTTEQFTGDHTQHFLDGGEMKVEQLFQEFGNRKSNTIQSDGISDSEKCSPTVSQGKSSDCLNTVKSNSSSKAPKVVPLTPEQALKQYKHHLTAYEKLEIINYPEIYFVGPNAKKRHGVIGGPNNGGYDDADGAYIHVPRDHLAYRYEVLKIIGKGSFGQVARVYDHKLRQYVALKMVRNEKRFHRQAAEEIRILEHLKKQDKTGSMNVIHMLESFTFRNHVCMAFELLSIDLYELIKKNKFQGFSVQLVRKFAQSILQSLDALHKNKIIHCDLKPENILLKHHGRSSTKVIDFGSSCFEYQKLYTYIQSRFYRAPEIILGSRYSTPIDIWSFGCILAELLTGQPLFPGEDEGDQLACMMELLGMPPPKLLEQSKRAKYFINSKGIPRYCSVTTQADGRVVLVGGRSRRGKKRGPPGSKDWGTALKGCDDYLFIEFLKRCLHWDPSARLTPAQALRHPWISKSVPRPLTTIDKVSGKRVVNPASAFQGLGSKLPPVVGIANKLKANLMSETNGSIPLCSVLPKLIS
Experimental: as §1

MAPKAPK2 = MAPKAPK2 (Homo sapiens, UniProt P49137); assay: Kinase profiling (SelectScreen), ZLYTE; type: biochemical
Experimental: as §1

JAK3 = JAK3 (Homo sapiens, UniProt P52333); assay: Kinase profiling (SelectScreen), ZLYTE; type: biochemical
Experimental: as §1

ROCK1 = ROCK1 (Homo sapiens, UniProt Q13464); assay: Kinase profiling (SelectScreen), ZLYTE; type: biochemical
Experimental: as §1

SYK = SYK (Homo sapiens, UniProt P43405); assay: Kinase profiling (SelectScreen), ZLYTE; type: biochemical
Experimental: as §1

[1] = test system: XBP1 mRNA splicing in HT-29 cells; assay: RT-qPCR of ER stress-induced XBP1 mRNA splicing, HT-29; type: cell-based, human; settings: HT-29 cells
Experimental: A549 cells, HCT 116 cells, and HT-29 cells were collected and seeded in 6-well plates at a density of 5 × 10^5 cells per well and cultured overnight to attach, then treated with compound or DMSO for 2 h, then 0.5 μg/mL final concentration of tunicamycin (Tm, MP Biomedi, 0215002805) were added to induce the ER stress for 2 h. After treatment, total RNA was purified using an RNeasy mini kit (Qiagen, 74106). 500 ng of total RNA was used for reverse transcription using the High-Capacity cDNA Reverse Transcription Kits (Thermo Fisher, 4368814). cDNA was diluted 1: 5 using RNase-free water, and 1 μL CDNA was used for each qPCR reaction. The qPCR was performed using PowerUp™ SYBR™ Green Master Mix (Thermo Fisher, A25742) with 10 µL reaction volume using Bio-Rad CFX96 Real-Time PCR Detection System following the standard cycling mode (primer Tm ≥ 60 °C) on the manufacturer’s protocol. Data was analyzed using the 2^- ΔΔCt method. The primers used are listed in Supplementary Table S3. The inhibition % was calculated by using the equation: inhibition% = 100× (normalized Tm control - normalized of the sample)/(normalized Tm control - normalized DMSO control). Tm control: Cells treated with tunicamycin; DMSO control: Cells treated with DMSO only.

Chain of TAOK2 (TAO1) (Q9UL54 whole entry): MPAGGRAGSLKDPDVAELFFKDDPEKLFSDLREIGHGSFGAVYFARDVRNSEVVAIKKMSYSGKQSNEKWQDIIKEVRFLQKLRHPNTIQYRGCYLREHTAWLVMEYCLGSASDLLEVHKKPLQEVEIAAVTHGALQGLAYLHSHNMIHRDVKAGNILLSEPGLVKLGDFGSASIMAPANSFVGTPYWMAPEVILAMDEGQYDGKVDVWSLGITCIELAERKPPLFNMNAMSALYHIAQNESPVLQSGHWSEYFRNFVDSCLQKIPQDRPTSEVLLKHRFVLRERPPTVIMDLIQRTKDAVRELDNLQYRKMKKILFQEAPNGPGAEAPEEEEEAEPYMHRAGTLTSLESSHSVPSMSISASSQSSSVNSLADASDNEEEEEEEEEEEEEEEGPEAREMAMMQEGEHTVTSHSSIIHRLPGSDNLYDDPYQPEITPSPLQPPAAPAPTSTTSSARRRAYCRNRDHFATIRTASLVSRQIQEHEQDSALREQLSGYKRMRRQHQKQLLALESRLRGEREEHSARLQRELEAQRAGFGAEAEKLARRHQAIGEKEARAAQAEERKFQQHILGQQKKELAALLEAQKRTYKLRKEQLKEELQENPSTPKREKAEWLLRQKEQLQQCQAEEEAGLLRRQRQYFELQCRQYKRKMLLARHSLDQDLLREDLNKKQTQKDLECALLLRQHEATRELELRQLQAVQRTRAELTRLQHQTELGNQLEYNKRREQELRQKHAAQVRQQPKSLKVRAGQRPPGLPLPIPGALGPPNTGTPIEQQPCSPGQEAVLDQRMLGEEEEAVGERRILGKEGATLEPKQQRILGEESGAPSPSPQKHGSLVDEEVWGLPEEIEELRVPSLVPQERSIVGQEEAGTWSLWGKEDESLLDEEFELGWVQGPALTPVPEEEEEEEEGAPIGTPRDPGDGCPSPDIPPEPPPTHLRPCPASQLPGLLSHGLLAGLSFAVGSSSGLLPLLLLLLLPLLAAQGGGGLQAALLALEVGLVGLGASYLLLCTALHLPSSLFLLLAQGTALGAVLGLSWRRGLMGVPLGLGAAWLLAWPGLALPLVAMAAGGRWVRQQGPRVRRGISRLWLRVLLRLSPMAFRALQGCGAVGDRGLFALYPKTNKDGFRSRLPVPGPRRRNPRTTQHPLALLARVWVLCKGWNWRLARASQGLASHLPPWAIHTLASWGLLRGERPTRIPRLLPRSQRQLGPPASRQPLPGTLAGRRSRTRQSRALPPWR

SMILES: Cc1c(CCC(=O)O)c2cc(Br)ccc2n1C(=O)c1ccccc1 [IA107]
- inhibition at 5 µM (TAOK2 (TAO1)): -4%
- inhibition at 5 µM (GSK3B (GSK3 beta)): 21%
- inhibition at 5 µM (STK4 (MST1)): 0%
- inhibition at 5 µM (KIT): 0%
- inhibition at 5 µM (ERBB2 (HER2)): -3%
- inhibition at 5 µM (RET): 9%
- inhibition at 5 µM (DNA-PK): -2%
- inhibition at 5 µM (ABL1): 3%
- inhibition at 5 µM (DYRK1A): 4%
- inhibition at 5 µM (DAPK3 (ZIPK)): 1%
- inhibition at 5 µM (PTK2 (FAK)): 4%
- inhibition at 5 µM (PHKG2): 26%
- inhibition at 5 µM (MARK2): 8%
- inhibition at 5 µM (CAMK1D (CaMKI delta)): 8%
- inhibition at 5 µM (ACVR1B (ALK4)): -5%
- inhibition at 5 µM (HIPK4): 6%
- inhibition at 5 µM (PLK1): 3%
- inhibition at 5 µM (PRKACA (PKA)): 9%
- inhibition at 5 µM (PIM1): 39%
- inhibition at 5 µM (KDR (VEGFR2)): 1%
- inhibition at 5 µM (CLK2): 7%
- inhibition at 5 µM (CSNK2A1 (CK2 alpha 1)): 6%
- inhibition at 5 µM (EPHA2): 4%
- inhibition at 5 µM (CHEK1 (CHK1)): 10%
- inhibition at 5 µM (RPS6KA3 (RSK2)): 1%
- inhibition at 5 µM (FLT3): 6%
- inhibition at 5 µM (INSR): 5%
- inhibition at 5 µM (DYRK3): 2%
- inhibition at 5 µM (MAPKAPK2): 5%
- inhibition at 5 µM (JAK3): 0%
- inhibition at 5 µM (ROCK1): 1%
- inhibition at 5 µM (SYK): 3%

- IC50 ([1]; Homo sapiens): 160 nM
SMILES: CCOC(=O)CCc1c(C)n(C(=O)c2ccccc2)c2ccc(Br)cc12 [IAPD1]
- inhibition of ER stress-induced XBP1 mRNA splicing [1]: inhibited

— PMC12475274, “Harnessing indole scaffolds to identify small-molecule IRE1α inhibitors modulating XBP1 mRNA splicing” (Nature Communications, 2025)
